Assay type in all cases: in vivo, human
For data set [1], the system named is patients with major depressive disorder. As to the kind of experiment: Montgomery Asberg Depression Rating Scale (MADRS) in MDD trial. The text has this: (§1) A multicenter, randomized, double blind, placebo- and paroxetine-controlled trial of amitifadine for major depressive disorder (MDD) non-responsive to an adequate trial of an antidepressant therapy in the current depressive episode. A sequential parallel comparison design (SPCD) is utilized. […] The study is 12 weeks in duration, with two 6-week phases. The primary outcome measure is change on the Montgomery Asberg Depression Rating Scale (MADRS). Secondary outcomes include Hamilton Rating Scale for Depression (HAM-D), Clinical Global Impression of Improvement (CGI-I), Sexual Functioning Inventory (SFI), Clinical Global Impression (Improvement and Severity versions), and the Massachusetts General Hospital (MGH) Cognitive and Physical Functioning Questionnaire (MGH-CPFQ). […]
In addition to standard inclusion criteria the trial requires: 1) diagnosis of MDD, based on the Structured Clinical Interview for DSM Disorders Clinical Trials version (SCID-CT), validated by remote independent raters using the SAFER criteria interview, 2) one and only one antidepressant therapy (ADT) failure in the current episode of MDD, treated with an adequate dose of one of an allowed standard antidepressant (paroxetine or an monoamine oxidase inhibitor (MAOI) not allowed) during the current episode for >6 weeks, with the same, adequate dose for >4 weeks, 3) HAM-D17≧18 at the end of screening phase, 4)<25% reduction in Quick Inventory of Depressive Symptoms Self-Rated (QIDS-SR) score between the screen and baseline visits. Inadequate response: defined as <50% reduction in depressive symptom severity, assessed by the MGH Antidepressant Treatment Response Questionnaire (ATRQ) administered by remote, independent raters (Targum, S. et al., CNS Neuroscience & Therapeutics, 2010, 16 (5), 322-325). […]
The primary efficacy assessment is the MADRS, administered at every study visit and clinicians complete it by using a structured interview guide developed by Massachusetts General Hospital (MGH). […] Vital signs are recorded at each visit; physical exam is performed at screen and week 12 (or early termination). […]

Data set [2] shares this test system. Put plainly: Sexual Functioning Inventory (SFI) in placebo- and paroxetine-controlled MDD trial. On the set-up: scale not given here. Conditions: LOCF. The text has this: (§2) A sequential parallel comparison design (SPCD) is utilized. […] The study is 12 weeks in duration, with two 6-week phases. The primary outcome measure is change on the Montgomery Asberg Depression Rating Scale (MADRS). Secondary outcomes include Hamilton Rating Scale for Depression (HAM-D), Clinical Global Impression of Improvement (CGI-I), Sexual Functioning Inventory (SFI), Clinical Global Impression (Improvement and Severity versions), and the Massachusetts General Hospital (MGH) Cognitive and Physical Functioning Questionnaire (MGH-CPFQ). Male and female patients, between the ages of 18-65, are eligible who had MDD, based on the Structured Clinical Interview for DSM Disorders (SCID) interview, and validated by remote raters, a history of non-response to an adequate trial of an antidepressant during the current episode of MDD (an adequate dose for >8 weeks), and a HAM-D-17 score of >18 at screening.
In addition to standard inclusion criteria the trial requires: 1) diagnosis of MDD, based on the Structured Clinical Interview for DSM Disorders Clinical Trials version (SCID-CT), validated by remote independent raters using the SAFER criteria interview, 2) one and only one antidepressant therapy (ADT) failure in the current episode of MDD, treated with an adequate dose of one of an allowed standard antidepressant (paroxetine or an monoamine oxidase inhibitor (MAOI) not allowed) during the current episode for >6 weeks, with the same, adequate dose for >4 weeks, 3) HAM-D17≧18 at the end of screening phase, 4)<25% reduction in Quick Inventory of Depressive Symptoms Self-Rated (QIDS-SR) score between the screen and baseline visits. Inadequate response: defined as <50% reduction in depressive symptom severity, assessed by the MGH Antidepressant Treatment Response Questionnaire (ATRQ) administered by remote, independent raters (Targum, S. et al., CNS Neuroscience & Therapeutics, 2010, 16 (5), 322-325). An adequate trial is defined as an ADT>6 weeks at least at the minimum dose specified in the MGH ATRQ.
The SCID-CT is administered by study clinicians at the screening visit to diagnose Axis I disorders. The remote, independent raters also administer the SAFER Criteria Inventory (SCI) during the screening phase to assess whether the MDD is a “valid” clinical entity.
The primary efficacy assessment is the MADRS, administered at every study visit and clinicians complete it by using a structured interview guide developed by Massachusetts General Hospital (MGH). The primary tolerability assessment is the change in the SFI, completed by the patient at every study visit. The MGH-CPFQ, a brief self-report inventory to assess rates of significant cognitive symptoms, sleepiness and fatigue, is filled out by patients at every visit. The Columbia-Suicide Severity Rating Scale (C-SSRS) (Posner K. et al., American Journal of Psychiatry, 2011, 168 (12)1266-77) is administered at every visit. Vital signs are recorded at each visit; physical exam is performed at screen and week 12 (or early termination). Laboratory tests are obtained at screen, baseline, and weeks 2, 4, 6, 8, 10, 12 (or early termination). Twelve-lead ECGs are obtained at screen, baseline, and weeks 3, 6, 9, 12 (or early termination). Consumptive habits (smoking, alcohol, and caffeinated beverages) are recorded at every visit. Adverse events and concomitant medications are collected at every visit.

Data set [3] has the same test system. As to the kind of experiment: Clinical Global Impression of Improvement (CGI-I) in MDD trial. Conditions: amitifadine 50 mg or 100 mg; paroxetine 40 mg at both 6 and 12 weeks.
Text: as §2, with “A multicenter, randomized, double blind, placebo- and paroxetine-controlled trial of amitifadine for major depressive disorder (MDD) non-responsive to an adequate trial of an antidepressant therapy in the current depressive episode. A sequential” for “A sequential”, “at screening. […]” for “at screening.”

Data set [4] shares this test system. As to the kind of experiment: Sexual Functioning Inventory (SFI) in placebo- and paroxetine-controlled MDD trial. Also on record: Mean Change from Baseline SFI, Item 3 / Mean Change from Baseline SFI, Item 4 / Mean Change from Baseline SFI, Item 5 / Mean Change from Baseline SFI Total / Mean Change from Baseline SFI, Item 1 / Mean Change from Baseline SFI, Item 2: scale not given here. Conditions: amitifadine 100 mg.

The test system is the same in data set [5]. Put plainly: Vital signs (heart rate, blood pressure) in MDD trial. Conditions: amitifadine 50 mg and 100 mg.
Text: as §1
The primary efficacy assessment is the MADRS, administered at every study visit and clinicians complete it by using a structured interview guide developed by Massachusetts General Hospital (MGH). […] Vital signs are recorded at each visit; physical exam is performed at screen and week 12 (or early termination). […] Consumptive habits (smoking, alcohol, and caffeinated beverages) are recorded at every visit. […]

[6] abbreviates: both genders, amitifadine 100 mg vs paroxetine 40 mg.
Setting [7] is: LOCF, female, compare vs placebo.
The mark [8] stands for this setting: female, amitifadine 100 mg, compare vs placebo.

Consider `Fc1ccc([C@@H]2CCNC[C@H]2COc2ccc3c(c2)OCO3)cc1` [Paroxetine, reference compound], for which the “improvement compared to both placebo and amitifadine 50 mg” value in data set [1] (exploratory analyses, paroxetine 40 mg) is given as “significantly better improvement”. For the same molecule, in data set [2] (setting [6]), the “Mean Change from Baseline SFI Total” value was −1.52; the “Mean Change from Baseline SFI, Item 1” value was −0.57; the “Mean Change from Baseline SFI, Item 2” value was −0.45; the “Mean Change from Baseline SFI, Item 3” value is reported as −0.27. Also, in data set [2] (setting [6]), the “Mean Change from Baseline SFI, Item 4” value is reported as −0.13 and the “Mean Change from Baseline SFI, Item 5” value was −0.23. For the same molecule, the “CGI-Improvement compared to placebo” value in data set [3] is “significant difference”.

In the case of `Clc1ccc([C@]23CNC[C@H]2C3)cc1Cl` [Amitifadine], in data set [4] (setting [7]), the “Mean Change from Baseline SFI Total” value is given as −4.41; the “Mean Change from Baseline SFI, Item 1” value was −1.16; the “Mean Change from Baseline SFI, Item 3” value is −0.97. In data set [4] (LOCF, male, compare vs placebo), the “Mean Change from Baseline SFI Total” value is on record as −3.12; the “Mean Change from Baseline SFI, Item 1” value is given as −0.83; the “Mean Change from Baseline SFI, Item 2” value was −0.83; the “Mean Change from Baseline SFI, Item 3” value is reported as −0.58. Further, in data set [4] (LOCF, male, compare vs placebo), the “Mean Change from Baseline SFI, Item 4” value is −0.79 and the “Mean Change from Baseline SFI, Item 5” value is recorded as −0.88. For the same molecule, the “individual items of the SFI (anorgasmia, arousal, overall satisfaction) versus paroxetine” value in data set [4] (most individual items) is recorded as “significantly less impairing”. Further, in data set [4] (post-hoc analyses by gender, women), the “SFI change from baseline compared with placebo in women” value is reported as “significant improvement”. In addition, in data set [1] (exploratory analyses), the “difference between paroxetine and amitifadine 100 mg in improvement” value was “non-significant”. Further, the “MADRS change from baseline compared to placebo” value in data set [1] (primary analysis, amitifadine 50 mg or 100 mg, paroxetine 40 mg) is listed as “no significant difference”. Moreover, in data set [2] (setting [6]), the “Mean Change from Baseline SFI Total” value is reported as −3.86; the “Mean Change from Baseline SFI, Item 1” value was −1.02; the “Mean Change from Baseline SFI, Item 2” value is given as −1.00; the “Mean Change from Baseline SFI, Item 3” value was −0.80. In data set [2] (setting [6]), the “Mean Change from Baseline SFI, Item 4” value is given as −0.79 and the “Mean Change from Baseline SFI, Item 5” value is recorded as −1.00. Besides, in data set [2] (setting [8]), the “Mean Change from Baseline SFI, Item 2” value is on record as −1.12 and the “Mean Change from Baseline SFI, Item 5” value is given as −1.09. The “CGI-Improvement compared to placebo” value in data set [3] is recorded as “no significant differences”. Moreover, the “changes in heart rate or blood pressure” value in data set [5] is “Neither dose is associated with significant changes”.

For the origin of these results see patent US20160279098A1, “NOVEL METHODS” (EUTHYMICS BIOSCIENCE, INC., priority 2013, published 2016).
